Source: US8530382B2, “Anthranilic diamide compositions for propagule coating” (E I du Pont de Nemours and Company, priority 2009, dated 2013)

Assays:
[1] = test system: 2nd instar larvae of Spodoptera frugiperda; assay: Laboratory test, 2nd instar larvae of Spodoptera frugiperda on treated soybean leaves; format: in vivo; conditions: within 96 h
[2] = test system: 2nd instar larvae of Spodoptera frugiperda; assay: Laboratory test, 2nd instar larvae of Spodoptera frugiperda on maize leaves; format: in vivo; conditions: within 72 h

Row | Compound | Concentration needed to achieve 50% mortality, relative to the concentration of Compound 2 [1] | Concentration in leaf tissue needed to achieve 100% mortality [2] | Concentration in leaf tissue resulting in 50% mortality [2]
1 | CNC(=O)c1cc(C#N)cc(C)c1NC(=O)c1cc(Br)nn1-c1ncccc1Cl [Compound 1, 3-bromo-1-(3-chloro-2-pyridinyl)-N-[4-cyano-2-methyl-6-[(methylamino)carbonyl]phenyl]-1H-pyrazole-5-carboxamide] | 4-5 times greater | – | –
2 | CNC(=O)c1cc(Cl)cc(C)c1NC(=O)c1cc(Br)nn1-c1ncccc1Cl [Compound 2, 3-bromo-N-[4-chloro-2-methyl-6-[(methylamino)carbonyl]phenyl]-1-(3-chloro-2-pyridinyl)-1H-pyrazole-5-carboxamide] | – | 0.037 μg per g of tissue | 0.033 μg per g of leaf tissue
